Values of other authors in patent US6469069B1, “Propofol composition containing sulfite” (Gensia Sicor Pharmaceuticals, Inc., priority 1998, dated 2002).

System: likely microbial contaminants
Conditions: 1% Diprivan (Zeneca) 0.1% Na2S2O5

SMILES: O=S([O-])S(=O)(=O)[O-].[Na+].[Na+] [sodium metabisulfite, Sodium metabisulfite]
- Preservative effect in propofol emulsion (in words): completely ineffectual
